# US11440906B2, “Biguanide derivatives and their rearrangement products for use in the treatment of cancer” (CENTRE NATIONAL DE LA RECHERCHE SCIENTIFIQUE, priority 2017, dated 2022)
# Read-outs that look alike come from different tables or passages of the source.
# Test system: A375 Sensitive cells
# Assay: Viability test, trypan blue exclusion, A375 Sensitive cells
# Assay type: cell-based, human
# Conditions: Homo sapiens, A-375, viable cells as percentage of DMSO control
# Description: Different melanoma cell lines were purchased from the American Tissue Culture Collection: A375 and WM9 cells are mutated on B-Raf, CDKN2A and PTEN proteins; SKmel28 cells are mutated on B-Raf and P53 proteins; 1205Lu cells are mutated on B-Raf and PTEN proteins; G-361 cells are mutated on B-Raf and CDKN2A proteins; C8161 cells are mutated on B-Raf and K-Ras proteins; WM3912 cells are mutated on B-Raf and CDKN2A proteins; MeWo cells are mutated on P53 and CDKN2A proteins; WM3918 presents no mutations on characteristic proteins.
# For trypan blue staining, […] of cells (melanoma and normal human cells) were aseptically transferred to a 1.5 mL clear Eppendorf tube and incubated for 3 min at room temperature with an equal volume of 0.4% trypan blue solution. Viable cells were counted and the results are expressed as the percentage of the value of control cells. All the experiments are performed 3 times in triplicate.
# A375 Sensitive cells were treated with different concentrations of the synthesized molecules (5.0 μM or 10 μM) for different times (24 hr or 48 hr) or with DMSO (Control) for 12 or 48 hr. At the end of the stimulation, viable cells were counted using the trypan blue dye exclusion method. The results are normalized as percentages compare to the control.
# A375 Sensitive cells were treated with 5 μM of CRO15 for different times (2 hr, 4 hr, 6 hr, 8 hr, 12 hr, 24 hr or 48 hr) or with 5 μM of PLX4032 (B-Raf inhibitor) for 48 hr or with DMSO (Control) for 48 hr. At the end of stimulation, viable cells were counted using the trypan blue dye exclusion method. The results are normalized as percentages compare to the control and data means±SEM of three independent experiments performed in triplicate *p<0.05; **p<0.01; ***p<0.001.
# A375 Sensitive cells were treated with different concentrations of CRO15 (0.5 μM, 2.5 μM, 5.0 μM, 7.5 μM, 50 μM) for 48 hr or with 5 μM of PLX4032 (B-Raf inhibitor) for 48 hr or with DMSO (Control) for 48 hr. At the end of the stimulation, viable cells were counted using the trypan blue dye exclusion method. The results are normalized as percentages compare to the control and data means±SEM of three independent experiments performed in triplicate *p<0.05; **p<0.01; ***p<0.001.
# A375 sensitive and resistant melanoma cells were treated with 5 μM of CRO15 for 48 hr or with 5 μM of PLX4032 for 48 hr or with DMSO (Control). At 48 hours, viable cells were counted using the trypan blue dye exclusion method. The results are normalized as percentages compare to the control and data means±SEM of three independent experiments performed in triplicate *p<0.05; **p<0.01; ***p<0.001.
# [1] = 24 h, read-out: Viab A375 5 μM/ 24 h
# [2] = 48 h, read-out: Viab A375 5 μM/ 48 h
# [3] = 24 h, read-out: Viab A375 10 μM/ 24 h
# [4] = 48 h, read-out: Viab A375 10 μM/ 48 h
SMILES,viability at 5 µM [1],viability at 5 µM [2],viability at 10 µM [3],viability at 10 µM [4]
"Cc1ccc2nc(NC(=N)NC(=N)c3cccc(Br)c3)sc2c1 [MTF 265, 3-bromo-N—(N-(6-methylbenzo[d]thiazol-2-yl)carbamimidoyl)benzimidamide]",91%,100%,84%,60%
"N=C(NC(=N)c1cccc(Cl)c1)Nc1nc(-c2ccccc2)cs1 [MTF 267, 3-chloro-N—(N-(4-phenylthiazol-2-yl)carbamimidoyl)benzimidamide]",113%,113%,134%,73.3%
"N=C(NC(=N)c1ccccc1)Nc1nc(-c2ccccc2)cs1 [MTF 272, N—(N-(4-phenylthiazol-2-yl)carbamimidoyl)benzimidamide]",100%,81%,88%,54.6%
"N=C(NC(=N)c1cccnc1)Nc1nc(-c2ccccc2)cs1 [MTF 273, N—(N-(4-phenylthiazol-2-yl)carbamimidoyl)nicotinimidamide]",46%,48%,100%,100%
"N=C(NC(=N)c1ccncc1)Nc1nc(-c2ccccc2)cs1 [MTF 274, N—(N-(4-phenylthiazol-2-yl)carbamimidoyl)isonicotinimidamide]",83%,93%,84%,89%
"N=C(NC(=N)c1ccccc1Cl)Nc1nc(-c2cccc([N+](=O)[O-])c2)cs1 [MTF 276, 2-chloro-N—(N-(4-(3-nitrophenyl)thiazol-2-yl)carbamimidoyl)benzimidamide]",91.6%,95.3%,73.9%,64.9%
"N=C(NC(=N)c1cccc(Cl)c1)Nc1nc(-c2cccc([N+](=O)[O-])c2)cs1 [MTF 277, 3-chloro-N—(N-(4-(3-nitrophenyl)thiazol-2-yl)carbamimidoyl)benzimidamide]",77.6%,88%,76.4%,85.8%
"N=C(NC(=N)c1ccc(Cl)cc1)Nc1nc(-c2cccc([N+](=O)[O-])c2)cs1 [MTF 281, 4-chloro-N—(N-(4-(3-nitrophenyl)thiazol-2-yl)carbamimidoyl)benzimidamide]",79%,112%,57.4%,78%
"Cc1csc(NC(=N)NC(=N)c2ccccc2)n1 [MTF 283, N—(N-(4-methylthiazol-2-yl)carbamimidoyl)benzimidamide]",100%,56%,100%,150%
"Cc1csc(NC(=N)NC(=N)c2ccccc2Cl)n1 [MTF 284, 2-chloro-N—(N-(4-methylthiazol-2-yl)carbamimidoyl)benzimidamide]",80.1%,117%,104%,76.9%
"Cc1csc(NC(=N)NC(=N)c2cccc(Cl)c2)n1 [MTF 285, 3-chloro-N—(N-(4-methylthiazol-2-yl)carbamimidoyl)benzimidamide]",45%,100%,77.8%,78.7%
"Cc1csc(NC(=N)NC(=N)c2ccc(Cl)cc2)n1 [MTF 286, 4-chloro-N—(N-(4-methylthiazol-2-yl)carbamimidoyl)benzimidamide]",48%,155%,65.3%,120%
"Cc1csc(NC(=N)NC(=N)c2ccccc2Br)n1 [MTF 287, 2-bromo-N—(N-(4-methylthiazol-2-yl)carbamimidoyl)benzimidamide]",60.9%,86.7%,53.7%,69.5%
"Cc1csc(NC(=N)NC(=N)c2cccc(Br)c2)n1 [MTF 288, 3-bromo-N—(N-(4-methylthiazol-2-yl)carbamimidoyl)benzimidamide]",50%,96.7%,70%,53.5%
"Cc1csc(NC(=N)NC(=N)c2ccccn2)n1 [MTF 289, N—(N-(4-methylthiazol-2-yl)carbamimidoyl)picolinimidamide]",81.1%,90.4%,78.7%,58.2%
"Cc1csc(NC(=N)NC(=N)c2cccnc2)n1 [MTF 290, N—(N-(4-methylthiazol-2-yl)carbamimidoyl)nicotinimidamide]",43.4%,21.6%,50.5%,14.4%
"Cc1csc(NC(=N)NC(=N)c2ccncc2)n1 [MTF 291, N—(N-(4-methylthiazol-2-yl)carbamimidoyl)isonicotinimidamide]",100%,95.2%,100%,41.3%
"COc1ccc(C(=N)NC(=N)Nc2nc(C)cs2)cc1 [MTF 292, 4-methoxy-N—(N-(4-methylthiazol-2-yl)carbamimidoyl)benzimidamide]",88.1%,83.3%,142%,71.9%
"Cc1nc(NC(=N)NC(=N)c2ccccc2Br)sc1C [MTF 295, 2-bromo-N—(N-(4,5-dimethylthiazol-2-yl)carbamimidoyl)benzimidamide]",109%,37.3%,66.1%,39.3%
"Cc1nc(NC(=N)NC(=N)c2ccccn2)sc1C [MTF 297, N—(N-(4,5-dimethylthiazol-2-yl)carbamimidoyl)picolinimidamide]",86.2%,59.8%,97.9%,24.9%
"Cc1nc(NC(=N)NC(=N)c2cccnc2)sc1C [MTF 298, N—(N-(4,5-dimethylthiazol-2-yl)carbamimidoyl)nicotinimidamide]",97.2%,73.6%,87.5%,54.7%
"Cc1nc(NC(=N)NC(=N)c2ccncc2)sc1C [MTF 299, N—(N-(4,5-dimethylthiazol-2-yl)carbamimidoyl)isonicotinimidamide]",91.1%,76.6%,72.8%,46.2%
"Cc1nc(NC(=N)NC(=N)c2ccccc2Cl)sc1C [MTF 300, 2-chloro-N—(N-(4,5-dimethylthiazol-2-yl)carbamimidoyl)benzimidamide]",96%,60%,50.8%,35.9%
"Cc1nc(NC(=N)NC(=N)c2cccc(Cl)c2)sc1C [MTF 301, 3-chloro-N—(N-(4,5-dimethylthiazol-2-yl)carbamimidoyl)benzimidamide]",74%,47%,106%,31.6%
"Cc1nc(NC(=N)NC(=N)c2ccc(Cl)cc2)sc1C [MTF 302, 4-chloro-N—(N-(4,5-dimethylthiazol-2-yl)carbamimidoyl)benzimidamide]",105%,52.3%,94.8%,39.3%
"Cc1nc(NC(=N)NC(=N)c2ccccc2)sc1C [MTF 303, N—(N-(4,5-dimethylthiazol-2-yl)carbamimidoyl)benzimidamide]",85.6%,44.2%,66.1%,39.1%
"N=C(NC(=N)C(Cl)(Cl)Cl)Nc1nc2ccccc2s1 [MTF 305, N—(N-(benzo[d]thiazol-2-yl)carbamimidoyl)-2,2,2-trichloroacetimidamide]",11%,20.7%,5.5%,4.7%
